Here are results for two compounds from patent US12522660B2, “Methods for selection and stimulation of cells and apparatus for same” (C3S2 GMBH, priority 2018, dated 2026).

The test system of data set [1] is CD4+ and CD8+ T cells. Description: Viability and live cell count of engineered T cell composition. Format: cell-based, human. The note with it: generated composition; produced with versus without compound. Here is the method: (§1) CD4+ and CD8+ T cells were isolated by immunoaffinity-based enrichment from leukapheresis samples from human donor subjects. […] The T cells cultured with our without Compound 63 were incubated overnight (approximately 24 hr) at 37° C., and were then transduced in serum-free culture media with our without Compound 63 ([…]) with a lentiviral vector encoding an anti-CD19 CAR. […] Following transduction, the cells were incubated in serum free media without recombinant cytokines (basal media) and with or without Compound 63 (1 mM) and allowed to incubate at about 37.0° C. in an incubator for up to 96 hours after initiation of the stimulation with the anti-CD3/anti-CD28 oligomeric stimulatory reagent (until day 5 of the process). […] The cryofrozen engineered CD4+ and CD8+ T cells were thawed, and T cells were assessed for intracellular S6 phosphorylation, a ribosomal protein and marker of mTOR inhibition, and co-stained for surface expression of CD4 or CD8 and for CCR7 and CD45RA as markers of memory subsets. pS6 expression in live CD8+ T cells by memory subsets was shown by the expression of CCR7 and CD45RA as shown in FIG. 6A. As shown, incubation with Compound 63 decreased the mean fluorescence intensity of stimulated memory T cell subsets, […], indicating an inhibition of mTOR, while having no significant effect on the percentage or total number of viable cells over time.

The test system of a further data set is anti-CD19 CAR T cells. Description: Long-term (12 days) stimulation with anti-idiotype antibody beads: expansion and survival. The format is cell-based, human. The note with it: anti-ID antibody beads. Here is the method:
CD4+ and CD8+ T cells were isolated by immunoaffinity-based enrichment from leukapheresis samples from human donor subjects. At day 1, isolated CD4+ and CD8+ T cells were mixed 1:1 and stimulated with an anti-CD3/anti-CD28 oligomeric stimulatory reagent generated as described in Example 1 in serum-free media supplemented with recombinant IL-2 (100 IU/mL), recombinant IL-7 (600 IU/mL), and recombinant IL-15 (100 IU/mL) with or without 1 μM of 2-(3-hydroxyphenyl)-9-(2-isopropylphenyl)-8-oxo-8,9-dihydro-7H-purine-6-carboxamide (Compound 63). The T cells cultured with our without Compound 63 were incubated overnight (approximately 24 hr) at 37° C., and were then transduced in serum-free culture media with our without Compound 63 ([…]) with a lentiviral vector encoding an anti-CD19 CAR. The CAR contained an scFv antigen-binding domain specific for CD19 (derived from FMC63), a CD28 transmembrane region, a 4-1BB costimulatory signaling region, and a CD3-zeta derived intracellular signaling domain. […]
To further assess the functional activity of the cells, the generated T cell compositions were stimulated long-term over 12 days with beads conjugated with an anti-idiotype (ID) antibody against the anti-CD19 CAR, and expansion and survival of the cells were monitored (FIG. 7F, left panel) and total expansion metric calculated by area under the curve (FIG. 7F, right panel).

Data set [2] relates to CD4+ and CD8+ T cells. Description: Caspase, CD27/CCR7 phenotype and intracellular cytokines of thawed engineered T cells. The format is cell-based, human. Here is the method:
CD4+ and CD8+ T cells were isolated by immunoaffinity-based enrichment from leukapheresis samples from human donor subjects. At day 1, isolated CD4+ and CD8+ T cells were mixed 1:1 and stimulated with an anti-CD3/anti-CD28 oligomeric stimulatory reagent generated as described in Example 1 in serum-free media supplemented with recombinant IL-2 (100 IU/mL), recombinant IL-7 (600 IU/mL), and recombinant IL-15 (100 IU/mL) with or without 1 μM of 2-(3-hydroxyphenyl)-9-(2-isopropylphenyl)-8-oxo-8,9-dihydro-7H-purine-6-carboxamide (Compound 63). The T cells cultured with our without Compound 63 were incubated overnight (approximately 24 hr) at 37° C., and were then transduced in serum-free culture media with our without Compound 63 ([…]) with a lentiviral vector encoding an anti-CD19 CAR. The CAR contained an scFv antigen-binding domain specific for CD19 (derived from FMC63), a CD28 transmembrane region, a 4-1BB costimulatory signaling region, and a CD3-zeta derived intracellular signaling domain. Following transduction, the cells were incubated in serum free media without recombinant cytokines (basal media) and with or without Compound 63 (1 mM) and allowed to incubate at about 37.0° C. in an incubator for up to 96 hours after initiation of the stimulation with the anti-CD3/anti-CD28 oligomeric stimulatory reagent (until day 5 of the process). […] Following incubation CD4+ and CD8+ T cells from each donor were harvested, formulated, and cryofrozen.
Thawed cells generated by the process described were assessed for a marker of apoptosis (e.g., percentage of caspase positive CAR-T cells), phenotypic profile, and ability to produce intracellular cytokines following stimulation with PMA/Ionomycin and a Golgi Inhibitor. […] Thawed cells also were stained for surface expression of CD27 and CCR7 by flow cytometry.

A further data set concerns mTOR. The data set is described as follows: Intracellular S6 phosphorylation (marker of mTOR inhibition) in engineered T cells. Format: cell-based, human. The settings on record: live CD8+ T cells; 1 μM at stimulation (1 mM printed for later steps). How it is done: as §1
Data set [3] addresses Strep-Tactin® (mutein streptavidin, SEQ ID NO: 4) (Streptomyces avidinii, UniProt P22629, E68V/S69T/V71R). The note with it: general statement of the description, no experiment of the applicant; read-out: binding affinity KD for binding to Strep-Tactin®; cited from earlier work.

Sequence of Strep-Tactin® (mutein streptavidin, SEQ ID NO: 4) (P22629 other isoform, or with tags, fused parts or gaps E68V/S69T/V71R): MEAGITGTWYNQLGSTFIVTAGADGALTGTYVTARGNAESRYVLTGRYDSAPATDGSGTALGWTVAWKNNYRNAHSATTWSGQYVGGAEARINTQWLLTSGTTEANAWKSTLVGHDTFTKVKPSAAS

For `CC(C)c1ccccc1-n1c(=O)[nH]c2c(C(N)=O)nc(-c3cccc(O)c3)nc21` [Compound 63, 2-(3-hydroxyphenyl)-9-(2-isopropylphenyl)-8-oxo-8,9-dihydro-7H-purine-6-carboxamide], in the data set with CD4+ and CD8+ T cells [1], the percent viable cells entry is listed as “did not impact” and the total live cells entry is recorded as “did not impact”. Besides, the “function (expansion and survival) after long-term CAR-specific stimulation” value in the data set on anti-CD19 CAR T cells is given as “improved function”. The “phenotypic subset profile by CD27 and/or CCR7 expression” value with CD4+ and CD8+ T cells [2] (CD8+ and CD4+ T cells) is on record as “did not substantially alter”. In addition, in the data set with CD4+ and CD8+ T cells [2] (after PMA/Ionomycin and Golgi inhibitor, CD8+ and CD4+ T cells), the “level of intracellular cytokines IL2, IFNg, or TNF” value is on record as “substantially improved”. The intracellular caspase expression entry in the data set with CD4+ and CD8+ T cells [2] (thawed CAR-T cells, with versus without compound) is given as “less”. In the data set with mTOR, the “pS6 mean fluorescence intensity in memory T cell subsets (Temra, Tem, Tcm)” value is on record as “decreased”.

The Kd is the equilibrium constant for the complex coming apart. As for WSHPQFEK [Strep-Tag® II], the Kd in data set [3] is about 1 µM.
